# Laboratory results: patent publication EP4745135A1 (Gluetacs Therapeutics (Shanghai) Co., Ltd., priority 2023, dated 2025)
# Columns and labels:
# [1] = molecular target: T1, human Cereblon WT GST-tagged protein (Homo sapiens, UniProt Q96SW2); test: CRBN-binding affinity, HTRF (CEREBLON BINDING kit); conditions: for inhibition at 0.5 µM: read-out: Inhibition Rate at 0.5 µM (%); for inhibition at 2 µM: read-out: Inhibition Rate at 2 µM (%)
# T1 construct: purchased CISBIO 64BDCRBNPEH
# GSPT1 = test: Western blot, degradation of substrate protein in hPBMCs; format: cell-based, Human
# IKZF1 = molecular target: T2, IKZF1 (Homo sapiens, UniProt Q13422+Q96SW2); test: as above; format: cell-based
# T2 construct: effects of the compounds of the present disclosure on the expression of target proteins in cells; endogenous in cells; host or cells: human PBMCs (Milecell Biotechnologies)
# T2 sequence (Q13422 whole entry): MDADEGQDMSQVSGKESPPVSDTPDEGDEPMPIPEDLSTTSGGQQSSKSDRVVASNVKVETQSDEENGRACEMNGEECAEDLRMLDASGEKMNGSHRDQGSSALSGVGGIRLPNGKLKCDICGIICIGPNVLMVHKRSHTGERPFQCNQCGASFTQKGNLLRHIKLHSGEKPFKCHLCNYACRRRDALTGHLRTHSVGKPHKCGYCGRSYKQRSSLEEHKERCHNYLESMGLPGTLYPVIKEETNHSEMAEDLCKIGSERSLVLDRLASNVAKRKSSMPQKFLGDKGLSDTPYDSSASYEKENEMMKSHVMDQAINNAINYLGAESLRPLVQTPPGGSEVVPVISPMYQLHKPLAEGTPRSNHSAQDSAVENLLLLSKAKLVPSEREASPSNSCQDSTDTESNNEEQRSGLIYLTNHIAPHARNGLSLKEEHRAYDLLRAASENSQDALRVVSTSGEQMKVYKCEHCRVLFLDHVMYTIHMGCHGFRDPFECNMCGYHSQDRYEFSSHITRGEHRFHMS
# T2 sequence (Q96SW2 whole entry): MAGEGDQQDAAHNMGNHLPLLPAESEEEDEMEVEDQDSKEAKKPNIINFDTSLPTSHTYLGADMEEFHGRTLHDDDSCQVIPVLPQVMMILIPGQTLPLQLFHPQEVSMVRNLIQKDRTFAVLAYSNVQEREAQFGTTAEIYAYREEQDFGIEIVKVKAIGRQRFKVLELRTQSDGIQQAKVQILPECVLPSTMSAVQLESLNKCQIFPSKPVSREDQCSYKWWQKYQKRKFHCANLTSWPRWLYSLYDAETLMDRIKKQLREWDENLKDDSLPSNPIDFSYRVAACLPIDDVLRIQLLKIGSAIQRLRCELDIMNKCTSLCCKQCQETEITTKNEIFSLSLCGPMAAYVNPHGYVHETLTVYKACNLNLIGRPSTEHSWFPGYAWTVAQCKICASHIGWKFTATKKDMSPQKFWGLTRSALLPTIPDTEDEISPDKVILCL
# T2 sequence (Q16531 whole entry partner): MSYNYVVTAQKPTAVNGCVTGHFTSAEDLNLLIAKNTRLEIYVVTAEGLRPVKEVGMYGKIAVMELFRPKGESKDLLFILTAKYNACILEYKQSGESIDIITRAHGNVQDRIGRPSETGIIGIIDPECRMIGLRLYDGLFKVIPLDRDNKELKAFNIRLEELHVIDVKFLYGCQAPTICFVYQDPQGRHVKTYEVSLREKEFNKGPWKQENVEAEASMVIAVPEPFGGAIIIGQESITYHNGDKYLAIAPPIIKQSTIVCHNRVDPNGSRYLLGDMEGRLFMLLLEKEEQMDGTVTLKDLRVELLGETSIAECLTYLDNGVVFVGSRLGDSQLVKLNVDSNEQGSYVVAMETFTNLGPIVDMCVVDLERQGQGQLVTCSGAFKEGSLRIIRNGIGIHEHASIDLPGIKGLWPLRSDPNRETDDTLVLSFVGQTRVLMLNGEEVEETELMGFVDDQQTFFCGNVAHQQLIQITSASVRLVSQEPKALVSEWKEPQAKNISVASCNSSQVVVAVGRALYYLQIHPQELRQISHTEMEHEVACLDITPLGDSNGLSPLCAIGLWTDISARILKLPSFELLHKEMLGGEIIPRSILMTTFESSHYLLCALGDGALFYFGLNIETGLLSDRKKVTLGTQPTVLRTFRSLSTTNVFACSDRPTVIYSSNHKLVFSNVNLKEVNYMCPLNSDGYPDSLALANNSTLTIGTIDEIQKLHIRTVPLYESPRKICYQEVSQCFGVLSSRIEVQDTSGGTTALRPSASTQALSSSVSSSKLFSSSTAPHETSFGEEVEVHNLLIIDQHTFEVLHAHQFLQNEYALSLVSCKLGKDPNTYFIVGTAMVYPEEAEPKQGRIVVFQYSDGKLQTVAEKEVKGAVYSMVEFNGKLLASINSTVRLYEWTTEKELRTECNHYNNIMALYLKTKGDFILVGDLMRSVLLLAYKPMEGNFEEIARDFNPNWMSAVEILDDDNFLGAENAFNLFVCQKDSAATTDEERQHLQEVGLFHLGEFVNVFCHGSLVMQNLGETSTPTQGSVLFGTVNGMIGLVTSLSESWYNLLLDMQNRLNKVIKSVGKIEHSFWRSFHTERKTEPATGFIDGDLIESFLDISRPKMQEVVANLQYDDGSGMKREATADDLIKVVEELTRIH
# IKZF3 = molecular target: T3, IKZF3 (Homo sapiens, UniProt Q96SW2+Q9UKT9); test: as above; format: cell-based
# T3 construct: effects of the compounds of the present disclosure on the expression of target proteins in cells; endogenous in cells; host or cells: human PBMCs (Milecell Biotechnologies)
# T3 sequence (Q9UKT9 whole entry): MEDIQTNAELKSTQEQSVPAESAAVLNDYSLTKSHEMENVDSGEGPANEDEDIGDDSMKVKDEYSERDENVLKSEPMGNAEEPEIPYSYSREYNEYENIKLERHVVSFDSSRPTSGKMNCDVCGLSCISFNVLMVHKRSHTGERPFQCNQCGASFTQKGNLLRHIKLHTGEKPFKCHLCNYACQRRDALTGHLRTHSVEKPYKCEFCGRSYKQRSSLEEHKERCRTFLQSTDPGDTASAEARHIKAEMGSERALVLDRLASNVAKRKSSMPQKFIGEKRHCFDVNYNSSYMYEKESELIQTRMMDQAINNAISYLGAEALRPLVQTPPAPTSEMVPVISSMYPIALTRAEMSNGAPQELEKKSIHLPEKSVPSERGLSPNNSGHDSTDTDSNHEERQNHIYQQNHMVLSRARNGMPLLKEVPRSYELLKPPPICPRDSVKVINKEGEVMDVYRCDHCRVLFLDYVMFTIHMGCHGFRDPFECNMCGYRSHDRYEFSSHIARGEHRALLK
# T3 sequence (Q96SW2 whole entry): as the sequence (Q96SW2 whole entry) above
# T3 sequence (Q16531 whole entry partner): as the sequence (Q16531 whole entry partner) above
# CK1α = molecular target: T4, CK1α (Homo sapiens, UniProt P48729+Q96SW2); test: as above; format: cell-based
# T4 construct: effects of the compounds of the present disclosure on the expression of target proteins in cells; endogenous in cells; host or cells: human PBMCs (Milecell Biotechnologies)
# T4 sequence (P48729 whole entry): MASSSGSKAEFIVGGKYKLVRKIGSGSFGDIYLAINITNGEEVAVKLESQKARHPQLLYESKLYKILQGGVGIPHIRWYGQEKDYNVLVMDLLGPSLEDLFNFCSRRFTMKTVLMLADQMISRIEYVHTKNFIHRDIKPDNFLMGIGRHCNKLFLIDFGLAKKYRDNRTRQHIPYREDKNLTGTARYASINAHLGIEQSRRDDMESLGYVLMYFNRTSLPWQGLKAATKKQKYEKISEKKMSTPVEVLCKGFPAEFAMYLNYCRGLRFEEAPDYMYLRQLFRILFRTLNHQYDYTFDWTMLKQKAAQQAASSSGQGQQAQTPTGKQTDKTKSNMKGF
# T4 sequence (Q96SW2 whole entry): as the sequence (Q96SW2 whole entry) above
# T4 sequence (Q16531 whole entry partner): as the sequence (Q16531 whole entry partner) above
# WEE1 = molecular target: T5, WEE1 (Homo sapiens, UniProt P30291+Q96SW2); test: as above; format: cell-based
# T5 construct: effects of the compounds of the present disclosure on the expression of target proteins in cells; endogenous in cells; host or cells: human PBMCs (Milecell Biotechnologies)
# T5 sequence (P30291 whole entry): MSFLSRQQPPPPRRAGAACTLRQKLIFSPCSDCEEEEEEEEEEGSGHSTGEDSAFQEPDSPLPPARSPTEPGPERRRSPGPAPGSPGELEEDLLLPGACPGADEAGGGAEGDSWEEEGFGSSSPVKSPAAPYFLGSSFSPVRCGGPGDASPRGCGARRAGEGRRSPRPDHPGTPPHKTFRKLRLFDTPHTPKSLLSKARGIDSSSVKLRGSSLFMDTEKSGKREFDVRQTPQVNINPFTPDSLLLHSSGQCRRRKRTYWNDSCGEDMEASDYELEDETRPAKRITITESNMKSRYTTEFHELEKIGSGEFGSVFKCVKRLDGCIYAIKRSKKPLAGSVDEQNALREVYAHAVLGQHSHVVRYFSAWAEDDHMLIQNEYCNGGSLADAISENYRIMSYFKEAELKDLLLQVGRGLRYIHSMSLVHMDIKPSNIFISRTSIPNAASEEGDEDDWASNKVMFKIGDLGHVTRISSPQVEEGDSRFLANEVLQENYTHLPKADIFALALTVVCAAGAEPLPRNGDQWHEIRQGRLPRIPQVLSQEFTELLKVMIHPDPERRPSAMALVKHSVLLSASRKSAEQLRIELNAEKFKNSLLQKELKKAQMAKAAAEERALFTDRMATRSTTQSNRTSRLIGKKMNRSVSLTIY
# T5 sequence (Q96SW2 whole entry): as the sequence (Q96SW2 whole entry) above
# T5 sequence (Q16531 whole entry partner): as the sequence (Q16531 whole entry partner) above
# IKZF2 = molecular target: T6, IKZF2 (Homo sapiens, UniProt Q96SW2+Q9UKS7); test: as above; format: cell-based
# T6 construct: effects of the compounds of the present disclosure on the expression of target proteins in cells; endogenous in cells; host or cells: human PBMCs (Milecell Biotechnologies)
# T6 sequence (Q9UKS7 whole entry): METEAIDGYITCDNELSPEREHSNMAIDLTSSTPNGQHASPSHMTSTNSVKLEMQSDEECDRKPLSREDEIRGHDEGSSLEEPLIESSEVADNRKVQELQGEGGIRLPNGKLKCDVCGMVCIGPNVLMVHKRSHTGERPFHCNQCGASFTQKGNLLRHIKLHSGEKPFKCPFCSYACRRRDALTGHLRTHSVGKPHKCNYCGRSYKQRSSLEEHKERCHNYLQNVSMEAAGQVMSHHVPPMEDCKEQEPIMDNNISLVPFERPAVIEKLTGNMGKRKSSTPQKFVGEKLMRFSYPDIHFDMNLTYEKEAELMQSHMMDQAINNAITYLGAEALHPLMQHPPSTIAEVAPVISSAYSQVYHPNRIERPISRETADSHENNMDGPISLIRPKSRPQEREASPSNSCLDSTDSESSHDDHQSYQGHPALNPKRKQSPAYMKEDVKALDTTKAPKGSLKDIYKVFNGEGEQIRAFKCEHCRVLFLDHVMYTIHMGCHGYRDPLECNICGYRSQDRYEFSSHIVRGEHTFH
# T6 sequence (Q96SW2 whole entry): as the sequence (Q96SW2 whole entry) above
# T6 sequence (Q16531 whole entry partner): as the sequence (Q16531 whole entry partner) above
# [2] = Western blot, 24 hours of compound treatment, compounds tested at 50 nM and 500 nM (concentration for the table not stated)
# [3] = 24 hours treatment, compounds at 50 nM and 500 nM (concentration behind the class not stated)
# T1 sequence (Q96SW2 whole entry): as the sequence (Q96SW2 whole entry) above
Structure (SMILES),inhibition at 0.5 µM [1] [%],inhibition at 2 µM [1] [%],"IC50 ([1]; CRBN binding, HTRF, 3 hours at room temperature, read-out: HTRF IC50) [nM]",GSPT1 substrate protein remaining % (GSPT1; [2]),IKZF 1 substrate protein remaining % (IKZF1; [2]),IKZF3 substrate protein remaining % (IKZF3; [2]),CK1α substrate protein remaining % (CK1α; [2]),Wee1 substrate protein remaining % (WEE1; [2]),IKZF2 substrate protein remaining % (IKZF2; [2]),GSPT1 substrate protein remaining % (GSPT1; [3]),IKZF 1 substrate protein remaining % (IKZF1; [3]),IKZF3 substrate protein remaining % (IKZF3; [3]),CK1α substrate protein remaining % (CK1α; [3]),Wee1 substrate protein remaining % (WEE1; [3]),IKZF2 substrate protein remaining % (IKZF2; [3])
"Cc1cccc(N2CCN(Cc3cccc4c3CN(C3CCC(=O)NC3=O)C4=S)CC2)n1 (centres unmarked) [GT-08692, 3-(4-((4-(6-methylpyridin-2-yl)piperazin-1-yl)methyl)-1-thioxoisoindolin-2-yl)piperidine-2,6-dione]",53 to 60,80 to 100,–,B (80%< substrate protein remaining %≤ 100%),B (80%< substrate protein remaining %≤ 100%),B (80%< substrate protein remaining %≤ 100%),B (80%< substrate protein remaining %≤ 100%),A (0% ≤ substrate protein remaining % ≤ 80%),B (80%< substrate protein remaining %≤ 100%),–,–,–,–,–,–
"Cc1cccc(N2CCN(Cc3cccc4c3CN(C3CCC(=O)NC3=O)C4=S)CC2)c1 (centres unmarked) [GT-08498, 3-(1-thioxo-4-((4-(m-tolyl)piperazin-1-yl)methyl)isoindolin-2-yl)piperidine-2,6-dione]",40 to 53,60 to 80,–,A (0% ≤ substrate protein remaining % ≤ 80%),B (80%< substrate protein remaining %≤ 100%),B (80%< substrate protein remaining %≤ 100%),B (80%< substrate protein remaining %≤ 100%),A (0% ≤ substrate protein remaining % ≤ 80%),A (0% ≤ substrate protein remaining % ≤ 80%),–,–,–,–,–,–
"O=C1CCC(N2Cc3c(CN4CCN(c5ncccc5F)CC4)cccc3C2=S)C(=O)N1 (centres unmarked) [GT-08697, 3-(4-((4-(3-fluoropyridin-2-yl)piperazin-1-yl)methyl)-1-thioxoisoindolin-2-yl)piperidine-2,6-dione]",60 to 80,80 to 100,–,B (80%< substrate protein remaining %≤ 100%),B (80%< substrate protein remaining %≤ 100%),B (80%< substrate protein remaining %≤ 100%),B (80%< substrate protein remaining %≤ 100%),A (0% ≤ substrate protein remaining % ≤ 80%),B (80%< substrate protein remaining %≤ 100%),–,–,–,–,–,–
"O=C1CCC(N2Cc3cc(CN4CCC(c5ccnc6cc(F)ccc56)CC4)ccc3C2=S)C(=O)N1 (centres unmarked) [GT-09278, 3-(5-((4-(7-fluoroquinolin-4-yl)piperidin-1-yl)methyl)-1-thioxoisoindolin-2-yl)piperidine-2,6-dione]",30 to 40,60 to 80,–,–,–,–,–,–,–,B (80%< substrate protein remaining %≤ 100%),A (0% ≤ substrate protein remaining % ≤ 80%),A (0% ≤ substrate protein remaining % ≤ 80%),B (80%< substrate protein remaining %≤ 100%),A (0% ≤ substrate protein remaining % ≤ 80%),B (80%< substrate protein remaining %≤ 100%)
"Cc1cscc1C1=CCN(Cc2cccc3c2CN(C2CCC(=O)NC2=O)C3=S)CC1 (centres unmarked) [GT-08308, 3-(4-((4-(4-methylthiophen-3-yl)-3,6-dihydropyridin-1(2H)-yl)methyl)-1-thioxoisoindolin-2-yl)piperidine-2,6-dione]",53 to 60,60 to 80,–,–,–,–,–,–,–,B (80%< substrate protein remaining %≤ 100%),B (80%< substrate protein remaining %≤ 100%),B (80%< substrate protein remaining %≤ 100%),B (80%< substrate protein remaining %≤ 100%),A (0% ≤ substrate protein remaining % ≤ 80%),B (80%< substrate protein remaining %≤ 100%)

# Second part, led by results:
inhibition at 0.5 µM [1] [%],inhibition at 2 µM [1] [%],"IC50 ([1]; CRBN binding, HTRF, 3 hours at room temperature, read-out: HTRF IC50) [nM]",Structure (SMILES),GSPT1 substrate protein remaining % (GSPT1; [2]),IKZF 1 substrate protein remaining % (IKZF1; [2]),IKZF3 substrate protein remaining % (IKZF3; [2]),CK1α substrate protein remaining % (CK1α; [2]),Wee1 substrate protein remaining % (WEE1; [2]),IKZF2 substrate protein remaining % (IKZF2; [2]),GSPT1 substrate protein remaining % (GSPT1; [3]),IKZF 1 substrate protein remaining % (IKZF1; [3]),IKZF3 substrate protein remaining % (IKZF3; [3]),CK1α substrate protein remaining % (CK1α; [3]),Wee1 substrate protein remaining % (WEE1; [3]),IKZF2 substrate protein remaining % (IKZF2; [3])
40 to 53,60 to 80,–,"O=C1CCC(N2Cc3c(CN4CCC(c5ccccc5C(F)(F)F)CC4)cccc3C2=S)C(=O)N1 (centres unmarked) [GT-08598, 3-(1-thioxo-4-((4-(2-(trifluoromethyl)phenyl)piperidin-1-yl)methyl)isoindolin-2-yl)piperidine-2,6-dione]",A (0% ≤ substrate protein remaining % ≤ 80%),B (80%< substrate protein remaining %≤ 100%),B (80%< substrate protein remaining %≤ 100%),B (80%< substrate protein remaining %≤ 100%),A (0% ≤ substrate protein remaining % ≤ 80%),B (80%< substrate protein remaining %≤ 100%),–,–,–,–,–,–
53 to 60,80 to 100,–,"O=C1CCC(N2Cc3c(CN4CCN(c5ccc(F)cn5)CC4)cccc3C2=S)C(=O)N1 (centres unmarked) [GT-08699, 3-(4-((4-(5-fluoropyridin-2-yl)piperazin-1-yl)methyl)-1-thioxoisoindolin-2-yl)piperidine-2,6-dione]",B (80%< substrate protein remaining %≤ 100%),B (80%< substrate protein remaining %≤ 100%),B (80%< substrate protein remaining %≤ 100%),B (80%< substrate protein remaining %≤ 100%),A (0% ≤ substrate protein remaining % ≤ 80%),B (80%< substrate protein remaining %≤ 100%),–,–,–,–,–,–
60 to 80,80 to 100,–,"O=C1CCC(N2Cc3cc(CN4CCN(c5ncnc6sc7c(c56)CCC7)CC4)ccc3C2=S)C(=O)N1 (centres unmarked) [GT-09301, 3-(5-((4-(6,7-dihydro-5H-cyclopenta[4,5]thieno[2,3-d]pyrimidin-4-yl)piperazin-1-yl)methyl)-1-thioxoisoindolin-2-yl)piperidine-2,6-dione]",–,–,–,–,–,–,B (80%< substrate protein remaining %≤ 100%),A (0% ≤ substrate protein remaining % ≤ 80%),A (0% ≤ substrate protein remaining % ≤ 80%),B (80%< substrate protein remaining %≤ 100%),B (80%< substrate protein remaining %≤ 100%),A (0% ≤ substrate protein remaining % ≤ 80%)
40 to 53,80 to 100,–,"O=C1CCC(N2Cc3c(CN4CCCN(c5cccc(Cl)c5Cl)CC4)cccc3C2=S)C(=O)N1 (centres unmarked) [GT-08472, 3-(4-((4-(2,3-dichlorophenyl)-1,4-diazepan-1-yl)methyl)-1-thioxoisoindolin-2-yl)piperidine-2,6-dione]",A (0% ≤ substrate protein remaining % ≤ 80%),B (80%< substrate protein remaining %≤ 100%),B (80%< substrate protein remaining %≤ 100%),B (80%< substrate protein remaining %≤ 100%),B (80%< substrate protein remaining %≤ 100%),B (80%< substrate protein remaining %≤ 100%),–,–,–,–,–,–
60 to 80,80 to 100,–,"Cc1nc(C2CCN(Cc3cccc4c3CN(C3CCC(=O)NC3=O)C4=S)CC2)c2ccsc2n1 (centres unmarked) [GT-08932, 3-(4-((4-(2-methylthieno[2,3-d]pyrimidin-4-yl)piperidin-1-yl)methyl)-1-thioxoisoindolin-2-yl)piperidine-2,6-dione]",–,–,–,–,–,–,B (80%< substrate protein remaining %≤ 100%),B (80%< substrate protein remaining %≤ 100%),B (80%< substrate protein remaining %≤ 100%),B (80%< substrate protein remaining %≤ 100%),A (0% ≤ substrate protein remaining % ≤ 80%),B (80%< substrate protein remaining %≤ 100%)
60 to 80,80 to 100,–,"Cc1nc(C2=CCN(Cc3cccc4c3CN(C3CCC(=O)NC3=O)C4=S)CC2)c2c(-c3ccccc3)csc2n1 (centres unmarked) [GT-08958, 3-(4-((4-(2-methyl-5-phenylthieno[2,3-d]pyrimidin-4-yl)-3,6-dihydropyridin-1(2H)-yl)methyl)-1-thioxoisoindolin-2-yl)piperidine-2,6-dione]",–,–,–,–,–,–,B (80%< substrate protein remaining %≤ 100%),B (80%< substrate protein remaining %≤ 100%),B (80%< substrate protein remaining %≤ 100%),B (80%< substrate protein remaining %≤ 100%),A (0% ≤ substrate protein remaining % ≤ 80%),B (80%< substrate protein remaining %≤ 100%)
–,–,100 to 500,"O=C1CCC(N2Cc3ccc(CN4CCN(c5cccc(Cl)c5Cl)CC4)cc3C2=S)C(=O)N1 (centres unmarked) [GT-05033, 3-(6-((4-(2,3-dichlorophenyl)piperazin-1-yl)methyl)-1-thioxoisoindolin-2-yl)piperidine-2,6-dione]",–,–,–,–,–,–,A (0% ≤ substrate protein remaining % ≤ 80%),B (80%< substrate protein remaining %≤ 100%),A (0% ≤ substrate protein remaining % ≤ 80%),B (80%< substrate protein remaining %≤ 100%),B (80%< substrate protein remaining %≤ 100%),B (80%< substrate protein remaining %≤ 100%)
